Measurements from PubChem BioAssay AID588647 (Sanford-Burnham Center for Chemical Genomics, 2011).
“And” between values parts separate entries of the source, which are not always exact repeats. Identical values can stand only once. The source made the active and inactive calls. No rule for the calls is given here.

biological target: intestinal alkaline phosphatase (Mus musculus); assay: mouse IAP inhibition by analogs – biochemical, luminescence, set 2, SAR follow-up (AID 588647); settings: purified mouse IAP, luminescent substrate read-out

Question: `Cc1ccc(NC(=O)CCNS(=O)(=O)c2ccc3c(c2)oc(=O)n3C)cc1C` was tested. Which IC50 did it give?
Answer: > 100 µM (inactive)

Question: With `O=C(CCNS(=O)(=O)c1ccc2[nH]c(=O)oc2c1)NCc1ccccc1F` as the compound, how does the IC50 read?
Answer: > 100 µM (inactive)

Question: With `COc1ccc(NS(=O)(=O)c2ccc3[nH]c(=O)oc3c2)cc1OC` as the compound, how does the IC50 read?
Answer: > 100 µM (inactive)

Question: Which IC50 does the source give for `O=C(CCCNS(=O)(=O)c1ccc2[nH]c(=O)oc2c1)NCCc1ccc(O)cc1` here?
Answer: 4.2 µM

Question: For `Cc1ccc(CNC(=O)C2CCCN(S(=O)(=O)c3ccc4[nH]c(=O)oc4c3)C2)cc1` (centres undefined), which IC50 is on record?
Answer: > 100 µM (inactive)

Question: `O=C(N/N=C/c1ccc(F)cc1F)c1ccc(O)cc1` was tested. Which IC50 did it give?
Answer: > 100 µM (inactive)

Question: Which IC50 does the source give for `O=C(CCNS(=O)(=O)c1ccc2[nH]c(=O)oc2c1)NCCc1ccc(O)cc1` here?
Answer: > 100 µM (inactive)

Question: With `N#Cc1cccc(NC(=O)CNS(=O)(=O)c2ccc3[nH]c(=O)oc3c2)c1` as the compound, how does the IC50 read?
Answer: 1.4 µM and > 100 µM (inactive)

Question: Which IC50 does the source give for `COc1cccc(C(=O)N/N=C/c2ccccc2F)c1` here?
Answer: > 100 µM (inactive)

Question: Which IC50 does the source give for `COc1ccc(CNC(=O)CNS(=O)(=O)c2ccc3[nH]c(=O)oc3c2)cc1` here?
Answer: 0.89 µM and 2.1 µM and 2.5 µM

Question: How did the IC50 turn out when `COc1ccccc1CNC(=O)CCCNS(=O)(=O)c1ccc2[nH]c(=O)oc2c1` was run?
Answer: 2 µM and 5.4 µM

Question: `O=C(N/N=C/c1ccc(Cl)c(Cl)c1)c1cc(O)c(O)c(O)c1` was tested. Which IC50 did it give?
Answer: 9.66 µM

Question: With `O=C(N/N=C/c1ccccc1F)c1ccccc1OCc1ccccc1` as the compound, how does the IC50 read?
Answer: > 100 µM (inactive)

Question: Which IC50 does the source give for `COc1ccc(CNC(=O)CNS(=O)(=O)c2ccc3[nH]c(=O)oc3c2)c(OC)c1` here?
Answer: > 100 µM (inactive)

Question: For `O=C(CCS(=O)(=O)Nc1ccc2[nH]c(=O)oc2c1)NCc1cccc(Cl)c1`, which IC50 is on record?
Answer: 67 µM

Question: Which IC50 does the source give for `Cc1ccc(C)c(NC(=O)CNS(=O)(=O)c2ccc3[nH]c(=O)oc3c2)c1` here?
Answer: 0.93 µM and 0.54 µM

Question: How did the IC50 turn out when `Cc1ccc(CNC(=O)CCNS(=O)(=O)c2ccc3[nH]c(=O)oc3c2)cc1` was run?
Answer: 89 µM

Question: How did the IC50 turn out when `COc1cccc(CNC(=O)CNS(=O)(=O)c2ccc3[nH]c(=O)oc3c2)c1` was run?
Answer: 1.8 µM and 0.73 µM

Question: For `O=C(NCc1ccc(F)cc1)C1CCCN(S(=O)(=O)c2ccc3[nH]c(=O)oc3c2)C1` (centres undefined), which IC50 is on record?
Answer: > 100 µM (inactive)
